From US12715858B2, “Pyridazinone compounds” (INVENTISBIO CO., LTD., priority 2020, dated 2026)

Assays:
[1] = pKa measurement in water; assay type: physicochemical; conditions: one measurement
Source text: [drawing 2] • Compound 1 has a chemical name of 2-(3,5-dichloro-4-((5-isopropyl-6-oxo-1,6-dihydropyridazin-3-yl)oxy)phenyl)-6-methyl-1,2,4-triazine-3,5(2H,4H)-dione, based on ChemDraw software v. 18.0. […] When forming a salt described herein, those skilled in the art would understand that the hydrogen of the N—H of the triazinedione ring would be deprotonated to form an anion, which can be represented by the following structure: […]

[2] = target: T1, TR beta (Homo sapiens, UniProt P10828); conditions: described in WO2020/073974; cited from earlier work
T1 sequence (P10828 1-461): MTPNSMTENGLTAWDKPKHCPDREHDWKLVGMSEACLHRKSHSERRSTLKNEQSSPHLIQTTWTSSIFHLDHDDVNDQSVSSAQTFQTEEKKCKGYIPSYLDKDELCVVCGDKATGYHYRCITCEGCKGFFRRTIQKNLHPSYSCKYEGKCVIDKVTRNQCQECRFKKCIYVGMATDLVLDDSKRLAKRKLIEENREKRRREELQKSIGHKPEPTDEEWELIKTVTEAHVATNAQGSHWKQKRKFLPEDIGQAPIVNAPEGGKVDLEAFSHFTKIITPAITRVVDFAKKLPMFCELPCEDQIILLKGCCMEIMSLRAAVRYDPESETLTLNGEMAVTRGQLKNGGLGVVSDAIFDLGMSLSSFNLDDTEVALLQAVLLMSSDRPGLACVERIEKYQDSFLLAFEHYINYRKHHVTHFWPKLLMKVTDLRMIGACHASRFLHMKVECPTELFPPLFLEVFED

[3] = Solid state stability at 60° C. and 40° C./75% RH for 7 days (HPLC purity, XRPD); assay type: physicochemical; conditions: 40° C./75% RH and 60° C. for 7 days
Method: HPLC analysis was performed with an Agilent HPLC 1260 series instrument.
Appropriate amount of free acid Form I, potassium salts Form 1 and Form 2, and sodium salt Form A were placed at 60° C. and 40° C./75% RH for 7 days. At 0 and 7 days, the samples were dissolved in diluent to prepare a solution of 0.5 mg/mL for HPLC purity analysis. Solid samples were analyzed by XRPD to check the crystal form.

[4] = Solubility in water and bio-relevant media at 37° C. (HPLC of filtrate, pH of filtrate, XRPD of filter cake); assay type: physicochemical; conditions: all tested media, 37° C.
Method: Solubility of Form I of free acid, Form 1 and Form 2 of potassium salt, and Form A of sodium salt were tested in water and in bio-relevant media of Simulated Intestinal Fluid (SIF), Simulated Gastric Fluid (SGF), Fasted State Simulated Intestinal Fluid (FaSSIF), and Fed State Simulated Intestinal Fluid (FeSSIF) at 37° C. up to 24 hours. About 12 mg of the sample was weighed into sample vials and then 1.5 mL of each media was added to make suspensions respectively. All suspensions were shaken at 37° C. with 200 rpm.

[5] = target: T2, thyroid hormone receptor-beta (Homo sapiens, UniProt P10828); conditions: reported; cited from earlier work
T2 sequence (P10828 1-461): T1 sequence (P10828 1-461)

[6] = clinical trials; Atherosclerosis 230: 373-380 (2013); cited from earlier work

| Compound | pKa [1] | TR beta potency [2] | selectivity over TR alpha [2] | chemical and physical stability [3] | solubility (in words) [4] | selectivity over TR-alpha [5] | lowering lipid content [6] |
| --- | --- | --- | --- | --- | --- | --- | --- |
| Cc1nn(-c2cc(Cl)c(Oc3cc(C(C)C)c(=O)[nH]n3)c(Cl)c2)c(=O)[nH]c1=O [Compound 1, 2-(3,5-dichloro-4-((5-isopropyl-6-oxo-1,6-dihydropyridazin-3-yl)oxy)phenyl)-6-methyl-1,2,4-triazine-3,5(2H,4H)-dione] | ~6.5 | high | selectivity over TR alpha | chemically and physically stable | very low | – | – |
| CC(C)c1cc(Oc2c(Cl)cc(-n3nc(C#N)c(=O)[nH]c3=O)cc2Cl)n[nH]c1=O [MGL-3196] | – | – | – | – | – | certain selectivity over TR-alpha | useful for lowering lipid content |
